Read-outs that look alike come from different tables or passages of the source.
Key:
topoisomerase I = molecular target: T1, topoisomerase I (Homo sapiens, UniProt P11387); settings: SN-38 versus irinotecan; cited from earlier work
T1 sequence (P11387 1-765): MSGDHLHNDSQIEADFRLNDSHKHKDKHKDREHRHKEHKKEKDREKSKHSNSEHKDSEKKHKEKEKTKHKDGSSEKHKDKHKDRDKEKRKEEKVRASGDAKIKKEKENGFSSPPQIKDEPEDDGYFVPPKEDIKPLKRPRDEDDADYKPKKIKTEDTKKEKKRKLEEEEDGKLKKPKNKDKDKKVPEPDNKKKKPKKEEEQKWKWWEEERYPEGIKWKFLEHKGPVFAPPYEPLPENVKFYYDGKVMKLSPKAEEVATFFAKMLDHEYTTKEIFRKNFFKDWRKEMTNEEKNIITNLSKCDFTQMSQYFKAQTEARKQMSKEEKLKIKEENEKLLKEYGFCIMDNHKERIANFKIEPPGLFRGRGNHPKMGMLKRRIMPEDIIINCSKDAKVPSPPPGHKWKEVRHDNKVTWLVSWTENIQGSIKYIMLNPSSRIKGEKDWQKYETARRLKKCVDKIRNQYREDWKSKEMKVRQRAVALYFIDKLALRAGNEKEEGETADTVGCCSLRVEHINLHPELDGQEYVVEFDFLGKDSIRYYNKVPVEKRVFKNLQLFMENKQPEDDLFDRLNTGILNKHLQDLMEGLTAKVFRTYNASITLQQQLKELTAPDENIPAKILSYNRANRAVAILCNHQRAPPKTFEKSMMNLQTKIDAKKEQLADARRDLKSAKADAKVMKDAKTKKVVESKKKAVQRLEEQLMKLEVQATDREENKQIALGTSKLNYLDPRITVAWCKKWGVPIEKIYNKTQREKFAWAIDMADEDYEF

[1] = test system: gastrointestinal epithelial cells; experiment: Expected kill of gastrointestinal epithelium from terminal half life versus cell cycle time
colon cancer tumor = experiment: Mathematical model of tumor size until lethal burden using 32% kill rate; settings: at both doses (125 mg and 100 mg), inferred from fit of the model to observed survival
colon cancer = settings: cited from earlier work
[2] = test system: metastatic breast cancer that possesses estrogen receptors; experiment: Example 4 patient, prior art doxorubicin regimen, tumor size; assay type: in vivo; settings: 30 mg/m2 once per week for 4 weeks, 3 cycles; illustrative patient example

For `CCc1c2c(nc3ccc(O)cc13)-c1cc3c(c(=O)n1C2)COC(=O)[C@]3(O)CC` [SN-38], the “potency as a topoisomerase inhibitor relative to irinotecan” value (topoisomerase I) is listed as ~1,000 times.

With `CCc1c2c(nc3ccc(OC(=O)N4CCC(N5CCCCC5)CC4)cc13)-c1cc3c(c(=O)n1C2)COC(=O)[C@]3(O)CC` [Camptosar, irinotecan] the “mortality to gastrointestinal epithelium” value ([1]; present invention LD 60) was 65%, the gastrointestinal epithelium killed ([1]; prior art LD 125 mg) was 95% and the S-Phase kill rate (colon cancer tumor) was roughly 100%. The median survival observed (colon cancer; 100 mg once every 7 days for 4 weeks, 2 weeks off, 2 cycles, months x 30 days) was 279 days, the median survival observed (colon cancer; 100 mg regimen) was 9.3 mo and the median survival observed (colon cancer; 125 mg once every 7 days for 4 weeks, 2 weeks off, 3 cycles, months x 30 days) was 321 days. For the same molecule, the median survival observed (colon cancer; 125 mg regimen) was 10.7 mo.

With `COc1cccc2c1C(=O)c1c(O)c3c(c(O)c1C2=O)C[C@@](O)(C(=O)CO)C[C@@H]3O[C@H]1C[C@H](N)[C@H](O)[C@H](C)O1` [doxorubicin] the “reduction in tumor size after the regimen” value [2] was 32%.
